System: at least one muscarinic receptor, M1, M2, M3, M4
Test: Muscarinic modulation activity (Table 3)
Format: cell-based
Set-up: key: +++: exhibited muscarinic modulation activity for at least one muscarinic receptor, M1, M2, M3, M4, at a concentration of less than 5 μM; ++: exhibited muscarinic modulation activity for at least one muscarinic receptor, M1, M2, M3, M4, at a concentration of between 30 μM and 5 μM; +: exhibited muscarinic modulation activity for at least one muscarinic receptor, M1, M2, M3, M4, at a concentration of greater than 30 μM; −: were not assayed or did not exhibit muscarinic modulation activity for at least one muscarinic receptor, M1, M2, M3, M4, at the concentration at which the assay was performed
Conditions: concentration at which modulation of at least one muscarinic receptor, M1, M2, M3, M4, was exhibited; CHO cells
Procedure: CHO cells expressing muscarinic receptors (M1 to M5) are grown as monolayers in tissue culture flasks at 37° C. in a humidified atmosphere containing 5% CO2 and passaged every 3-5 days. The growth media is Dulbecco's modified eagles medium (DMEM, Gibco Cat#12430-054), containing 25 mM Hepes and supplemented with Fetal Bovine Serum (Hyclone, cat#SH30071.03), 0.1 mM of MEM non-essential amino acids (GIBCO, Cat#11140-050), 1 mM MEM Sodium Pyruvate (GIBCO Cat#11360-070) and 100 units/ml of Penicillin G and 100 μg/ml of Streptomycin (GIBCO Cat#15140-122). The recombinant muscarinic receptor cell lines are grown under antibiotic pressure with media containing 25 μg/ml zeocin and 500 μg/ml G418 (M1-CHO), 4 μg/ml puromycin, 50 μg/ml zeocin and 2.5 μg/ml blasticidin (M2 and M4-CHO) or 50 μg/ml zeocin and 4 μg/ml puromycin (M3 and M5-CHO).
Cells are harvested at 80-90% confluence using Versene (GIBCO Cat#15040-066), collected by centrifugation and seeded 18-24 hrs prior to running the calcium assay at a density of 5,000-10,000 cells/well in […], clear-bottomed 384-well plates (BD Biocoat, poly-D-lysine, Cat#356663). The day of the experiment, the cells are washed with a plate washer (Bioteck Instruments, ELX 405) using bath1 buffer (140-mM NaCl, 4.5-mM KCl, 2-mM CaCl2, 1-mM MgCl2, 10-mM Hepes-Na, 10-mM Glucose, pH 7.4, with NaOH) containing 1 mM Probenecid. Next, the calcium dye Fluo-3 (25 μl/well of Fluo-3 AM at 4 μM, Molecular Probes F-1241, in Bath 1 buffer containing 1 mM Probenecid) is added to the 25 μl of Bath 1 remaining in each well after the plate wash and the dye is loaded at 37° C. in the tissue culture incubator for 60-90 min. The fluorescent dye is removed using the plate washer with Bath 1 containing 1 mM Probenecid, leaving 25 μl/well of this solution after the wash. Alternatively, cells can be loaded with the calcium indicator from Molecular Devices (Calcium 3 Assay Reagents, Cat #R7181) adding 5 μl of a 5× solution dye in Bath 1 containing 1 mM Probenecid (10 ml per dye flask cat#R7182 to generate a solution […]) to 20 μl of the same buffer. After loading for 60 min. the experiment can be run without having to remove the dye.
Compounds are prepared at a 2× fold concentration in a 96-well plate (round bottom, Costar Corning cat#3656), by reconstituting the pre-spotted compounds in bath 1 containing 1 mM probenecid. The final concentration DMSO is 0.5%, and the amount of DMSO is normalized across the assay plate. To determine an agonist action of the compounds on muscarinic receptors, the reconstituted compounds are added (25 μl compound/well) to the cell assay plate (containing 25 μl/well) using the multi-channel robotic system of the FLIPR 3 Instrument (Molecular Devices, Sunnyvale, Calif.). To determine a functional inhibitory action of the compounds on muscarinic receptors, the reconstituted compounds are added (25 μl compound/well) to the assay plate and pre-incubated for 15 min prior to adding 25 μl of Carbachol at 3× the EC80 for each muscarinic subtype. Alternatively, the compounds can be co-applied simultaneously with the agonist. In both assay modes, the fluorescence is recorded for 60 sec (excitation wavelength is […] and emission wavelength 540 nm) using the FLIPR 3 instrument.
The potency, efficacy and selectivity of the muscarinic compounds were evaluated by screening the compound activity across the whole family (M1 to M5 cells).
CHO cells expressing muscarinic receptors (M1 to M5) and containing a gene reporter system β-Lactamase) with transcriptional control mediated by calcium release (NFAT activation). See Zlokarnik, G; Negulescu, P. A.; Knapp, T. E.; Mere, L; Burres, N; Feng, L; Whitney, M; Roemer, K; Tsien, R. Y. Quantitation of transcription and clonal selection of single living cells with β-lactamase as reporter. Science, 1998 Jan. 2, 279(5347):84-8. The cells are grown as monolayers in tissue culture flasks at 37° C. in a humidified atmosphere containing 5% CO2 and passaged every 3-5 days. […]

| Compound | ACTIVITY (muscarinic modulation activity) |
| --- | --- |
| Cc1nccnc1N1CCN(C2CC3CCC2C3)CC1 (centres unmarked) [Compound 63, 2-methyl-3-(4-norbornan-2-ylpiperazin-1-yl)-pyrazine] | + (exhibited muscarinic modulation activity for at least one muscarinic receptor, M1, M2, M3, M4, at a concentration of greater than 30 μM) |
| FC(F)(F)c1cccnc1N1CCN(CC2CC3C=CC2C3)CC1 (centres unmarked) [Compound 69, 1-(5-bicyclo[2.2.1]hept-2-enylmethyl)-4-[3-(trifluoromethyl)-2-pyridyl]-piperazine] | +++ (exhibited muscarinic modulation activity for at least one muscarinic receptor, M1, M2, M3, M4, at a concentration of less than 5 μM) |
| Cc1nc(N2CCN(CC3CC4CCC3C4)CC2)c(C#N)cc1-c1ccccc1 (centres unmarked) [Compound 73, 6-methyl-2-[4-(norbornan-2-ylmethyl)piperazin-1-yl]-5-phenyl-nicotinonitrile] | − |
| N#Cc1cccnc1N1CCN(C2CC3CCC(C3)C2)CC1 (centres unmarked) [Compound 27, 2-[4-(3-bicyclo[3.2.1]octyl)piperazin-1-yl]nicotinonitrile] | + (exhibited muscarinic modulation activity for at least one muscarinic receptor, M1, M2, M3, M4, at a concentration of greater than 30 μM) |
| 3-[4-(3-cyanopyrazin-2-yl)piperazin-1-yl]-8-azabicyclo[3.2.1]octane-8-carboxylic acid ethyl ester [Compound 45] | + (exhibited muscarinic modulation activity for at least one muscarinic receptor, M1, M2, M3, M4, at a concentration of greater than 30 μM) |
| CCOC(=O)N1C2CCC1CC(N1CCN(c3cc(C#N)ccn3)CC1)C2 (centres unmarked) [Compound 56, 3-[4-(4-cyano-2-pyridyl)piperazin-1-yl]-8-azabicyclo[3.2.1]octane-8-carboxylic acid ethyl ester] | +++ (exhibited muscarinic modulation activity for at least one muscarinic receptor, M1, M2, M3, M4, at a concentration of less than 5 μM) |
| Cc1cccc(N2CCN(CC3CC4C=CC3C4)CC2)n1 (centres unmarked) [Compound 15, 1-(5-bicyclo[2.2.1]hept-2-enylmethyl)-4-(6-methyl-2-pyridyl)-piperazine] | ++ (exhibited muscarinic modulation activity for at least one muscarinic receptor, M1, M2, M3, M4, at a concentration of between 30 μM and 5 μM) |
| N#Cc1cc(-c2ccccc2)nnc1N1CCN(CC2CC3CCC2C3)CC1 (centres unmarked) [Compound 59, 3-[4-(norbornan-2-ylmethyl)piperazin-1-yl]-6-phenyl-pyridazine-4-carbonitrile] | + (exhibited muscarinic modulation activity for at least one muscarinic receptor, M1, M2, M3, M4, at a concentration of greater than 30 μM) |
| c1ccc2c(c1)nnn2C1CCN(C2CC3CCC2C3)CC1 (centres unmarked) [Compound 50, 1-(1-norbornan-2-yl-4-piperidyl)-1H-benzotriazole] | ++ (exhibited muscarinic modulation activity for at least one muscarinic receptor, M1, M2, M3, M4, at a concentration of between 30 μM and 5 μM) |
| NC(=O)c1ccc(N2CCN(CC3CC4CCC3C4)CC2)nc1 (centres unmarked) [Compound 14, 6-[4-(norbornan-2-ylmethyl)piperazin-1-yl]nicotinamide] | − |
| c1cc(N2CCN(C3CCC4CCC3C4)CC2)ccn1 (centres unmarked) [Compound 61, 1-(2-bicyclo[3.2.1]octyl)-4-(4-pyridyl)piperazine] | − |
| CCOC(=O)N1C2CCC1CC(N1CCC(n3nnc4ccccc43)CC1)C2 (centres unmarked) [Compound 29, 3-[4-(1H-benzotriazol-1-yl)-1-piperidyl]-8-azabicyclo[3.2.1]octane-8-carboxylic acid ethyl ester] | +++ (exhibited muscarinic modulation activity for at least one muscarinic receptor, M1, M2, M3, M4, at a concentration of less than 5 μM) |
| COc1cc(OC)nc(C2CCN(CC3CC4C=CC3C4)CC2)n1 (centres unmarked) [Compound 4, 2-[1-(5-bicyclo[2.2.1]hept-2-enylmethyl)-4-piperidyl]-4,6-dimethoxy-pyrimidine] | +++ (exhibited muscarinic modulation activity for at least one muscarinic receptor, M1, M2, M3, M4, at a concentration of less than 5 μM) |
| CCOC(=O)N1C2CCC1CC(N1CCN(c3ncc(-c4ccccc4)cc3C#N)CC1)C2 (centres unmarked) [Compound 33, 3-[4-(3-cyano-5-phenyl-2-pyridyl)piperazin-1-yl]-8-azabicyclo[3.2.1]octane-8-carboxylic acid ethyl ester] | + (exhibited muscarinic modulation activity for at least one muscarinic receptor, M1, M2, M3, M4, at a concentration of greater than 30 μM) |
| CCOC(=O)N1C2CCC1CC(N1CCN(c3nnc(-c4ccccc4)cc3C#N)CC1)C2 (centres unmarked) [Compound 11, 3-[4-(4-cyano-6-phenyl-pyridazin-3-yl)piperazin-1-yl]-8-azabicyclo[3.2.1]octane-8-carboxylic acid ethyl ester] | + (exhibited muscarinic modulation activity for at least one muscarinic receptor, M1, M2, M3, M4, at a concentration of greater than 30 μM) |
| N#Cc1ccc(N2CCN(CC3CC4C=CC3C4)CC2)nc1 (centres unmarked) [Compound 34, 6-[4-(5-bicyclo[2.2.1]hept-2-enylmethyl)piperazin-1-yl]nicotinonitrile] | +++ (exhibited muscarinic modulation activity for at least one muscarinic receptor, M1, M2, M3, M4, at a concentration of less than 5 μM) |
| N#Cc1cccnc1N1CCN(CC2CC3C=CC2C3)CC1 (centres unmarked) [Compound 42, 2-[4-(5-bicyclo[2.2.1]hept-2-enylmethyl)piperazin-1-yl]nicotinonitrile] | +++ (exhibited muscarinic modulation activity for at least one muscarinic receptor, M1, M2, M3, M4, at a concentration of less than 5 μM) |
| C1=CC2CC1CC2CN1CCN(c2ccncc2)CC1 (centres unmarked) [Compound 41, 1-(5-bicyclo[2.2.1]hept-2-enylmethyl)-4-(4-pyridyl)piperazine] | +++ (exhibited muscarinic modulation activity for at least one muscarinic receptor, M1, M2, M3, M4, at a concentration of less than 5 μM) |
| N#Cc1ccc(C(F)(F)F)nc1N1CCN(CC2CC3C=CC2C3)CC1 (centres unmarked) [Compound 53, 2-[4-(5-bicyclo[2.2.1]hept-2-enylmethyl)piperazin-1-yl]-6-(trifluoromethyl)nicotinonitrile] | + (exhibited muscarinic modulation activity for at least one muscarinic receptor, M1, M2, M3, M4, at a concentration of greater than 30 μM) |
| CCOC(=O)N1C2CCC1CC(N1CCN(c3nc(C(F)(F)F)ccc3C#N)CC1)C2 (centres unmarked) [Compound 24, 3-[4-[3-cyano-6-(trifluoromethyl)-2-pyridyl]piperazin-1-yl]-8-azabicyclo[3.2.1]octane-8-carboxylic acid ethyl ester] | +++ (exhibited muscarinic modulation activity for at least one muscarinic receptor, M1, M2, M3, M4, at a concentration of less than 5 μM) |

Source: US7820817B2, “Modulators of muscarinic receptors” (Vertex Pharmaceuticals Incorporated, priority 2004, dated 2010)
